The supplement of paper PMC10307832

How the values were obtained:
Assay in all cases: relative viability (nuclei count vs DMSO), 5 days (fraction); higher = more cells survive
Sulindac + Foretinib = compound: CC1=C(CC(=O)O)c2cc(F)ccc2/C1=C\c1ccc([S+](C)[O-])cc1 [Sulindac] + COc1cc2c(Oc3ccc(NC(=O)C4(C(=O)Nc5ccc(F)cc5)CC4)cc3F)ccnc2cc1OCCCN1CCOCC1 [Foretinib] (partner 0.25 µM)
In short: (§1)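 For relative viability, nuclei counts in treated wells were divided by those in vehicle wells. Lung cancer cell lines had been pin-tool dosed in 1536-well plates the day after seeding and cultured for 5 days, then fixed and stained in one step (final 0.05% Triton X-100, 1% formaldehyde, 1 ug/ml Hoechst) and imaged at 4×. Doses were one drug alone or a fixed anchor-drug dose plus five library-drug doses (not always all listed) in √10 steps, and values are duplicate-plate medians.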

[1] = compound: O=c1[nH]cc(F)c(=O)[nH]1 [5-Fluorouracil] + C[C@]1(O)C[C@@H](c2nc(-c3ccc4ccc(-c5ccccc5)nc4c3)c3c(N)nccn32)C1 [Linsitinib] (partner 1 µM)
In short: as §1

Sulindac + Trametinib = compound: CC1=C(CC(=O)O)c2cc(F)ccc2/C1=C\c1ccc([S+](C)[O-])cc1 [Sulindac] + CC(=O)Nc1cccc(-n2c(=O)n(C3CC3)c(=O)c3c(Nc4ccc(I)cc4F)n(C)c(=O)c(C)c32)c1 [Trametinib] (partner 0.02 µM)
In short: as §1

Sulindac + OSI-027 = compound: CC1=C(CC(=O)O)c2cc(F)ccc2/C1=C\c1ccc([S+](C)[O-])cc1 [Sulindac] + COc1cccc2cc(-c3nc([C@H]4CC[C@H](C(=O)O)CC4)n4ncnc(N)c34)[nH]c12 [OSI-027] (partner 0.5 µM)
In short: as §1

Cell Line	relative viability (Sulindac + Foretinib; first compound 0.08 µM)	relative viability (Sulindac + Foretinib; first compound 0.253 µM)	relative viability (Sulindac + Foretinib; first compound 2.53 µM)	relative viability (Sulindac + Foretinib; first compound 8 µM)	relative viability ([1]; first compound 0.02 µM)	relative viability ([1]; first compound 0.2 µM)	relative viability ([1]; first compound 0.6325 µM)	relative viability ([1]; first compound 2 µM)	relative viability (Sulindac + Foretinib; first compound 0.8 µM)	relative viability (Sulindac + Trametinib; first compound 0.08 µM)	relative viability (Sulindac + Trametinib; first compound 0.253 µM)	relative viability (Sulindac + Trametinib; first compound 0.8 µM)	relative viability (Sulindac + Trametinib; first compound 2.53 µM)	relative viability (Sulindac + Trametinib; first compound 8 µM)	relative viability (Sulindac + OSI-027; first compound 0.08 µM)	relative viability (Sulindac + OSI-027; first compound 0.253 µM)	relative viability (Sulindac + OSI-027; first compound 0.8 µM)	relative viability (Sulindac + OSI-027; first compound 2.53 µM)	relative viability (Sulindac + OSI-027; first compound 8 µM)
EBC-1	0.0937	0.0935	0.107	0.105	0.859	0.928	0.814	0.605	–	–	–	–	–	–	–	–	–	–	–
EKVX	0.666	0.942	0.683	0.995	0.891	0.282	0.153	0.142	0.421	0.299	0.34	0.292	0.335	0.333	0.674	0.713	0.641	0.598	0.684
EMC-BAC-2	0.953	1.05	1.02	1.08	0.865	0.873	0.846	0.8	0.892	1.03	0.917	0.794	0.794	0.994	0.375	0.407	0.311	0.371	0.473
EPLC-272H	0.669	0.763	0.711	0.745	1.1	0.9	–	0.305	–	0.195	–	0.266	0.245	0.279	0.274	0.286	–	0.256	0.327
H3255	0.962	0.853	0.879	0.827	0.99	1.07	0.853	0.579	0.678	0.635	0.661	0.509	0.699	0.656	0.523	0.622	0.474	0.576	0.593
HARA	1.28	1.05	0.819	1.1	0.963	1.02	0.885	0.891	0.991	0.516	0.926	0.777	0.715	0.735	0.553	0.549	0.447	0.488	0.602
HCC-15	1.19	1.02	0.978	1.33	0.894	0.827	0.584	0.308	0.905	0.415	0.395	0.375	0.347	0.283	0.77	0.716	0.526	0.634	0.667
HCC-44	–	–	–	–	0.613	0.57	0.451	0.272	–	1.11	1.13	0.969	1.26	1.02	0.463	0.592	–	0.519	0.734
HCC-78	0.512	0.547	0.566	0.556	0.398	0.528	0.258	–	0.585	0.844	0.865	0.647	0.81	0.824	0.385	0.395	0.399	0.329	0.381
